What was measured:
Assay in all cases: relative viability (nuclei count vs DMSO), 5 days (fraction); higher = more cells survive
[1] = tested on: NCI-H2009
Procedure, shortened: (§1)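 A single step with final 0.05% Triton X-100, 1% formaldehyde and 1 ug/ml Hoechst fixed the cells and stained nuclei 5 days after treatment. Lung cancer cell lines in 1536-well plates had been treated by pin tool the day after seeding with one drug alone or a fixed anchor-drug dose plus five library-drug doses (not always all listed) in √10 steps, and nuclei were counted on 4× images. Relative viability is the ratio of nuclei in treated wells to nuclei in vehicle wells, taken as the median of duplicate plates.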

[2] = tested on: NCI-H2342
Procedure, shortened: as §1

[3] = tested on: NCI-H1975
Procedure, shortened: as §1

[4] = tested on: NCI-H1666
Procedure, shortened: as §1

[5] = tested on: UMC-11
Procedure, shortened: as §1

[6] = tested on: H3255
Procedure, shortened: as §1

[7] = tested on: PC-14
Procedure, shortened: as §1

[8] = tested on: NCI-H2228
Procedure, shortened: as §1

[9] = tested on: HCC-827
Procedure, shortened: as §1

[10] = tested on: NCI-H23
Procedure, shortened: as §1

[11] = tested on: PC-3 [JPC-3]
Procedure, shortened: as §1

[12] = tested on: LC-2-ad
Procedure, shortened: as §1

[13] = tested on: NCI-H2087
Procedure, shortened: as §1

[14] = tested on: SK-MES-1
Procedure, shortened: as §1

[15] = tested on: ABC-1
Procedure, shortened: as §1

[16] = tested on: HCC-15
Procedure, shortened: as §1

[17] = tested on: LXF-289
Procedure, shortened: as §1

[18] = tested on: NCI-H661
Procedure, shortened: as §1

[19] = tested on: NCI-H2085
Procedure, shortened: as §1

[20] = tested on: HCC-366
Procedure, shortened: as §1

[21] = tested on: NCI-H1437
Procedure, shortened: as §1

[22] = tested on: LCLC-103H
Procedure, shortened: as §1

[23] = tested on: COR-L23
Procedure, shortened: as §1

Cc1csc(=NC2CCCCC2)n1/N=C/c1ccc(O)c(O)c1O [MIM1] + CC(=O)c1c(C)c2cnc(Nc3ccc(N4CCNCC4)cn3)nc2n(C2CCCC2)c1=O [Palbociclib] (partner 0.5 µM)
relative viability ([1]; first compound 0.2 µM): 0.288
relative viability ([1]; first compound 0.6325 µM): 0.266
relative viability ([1]; first compound 2 µM): 0.331
relative viability ([1]; first compound 6.325 µM): 0.167
relative viability ([1]; first compound 20 µM): 0.122
relative viability ([2]; first compound 0.2 µM): 0.525
relative viability ([2]; first compound 0.6325 µM): 0.543
relative viability ([2]; first compound 2 µM): 0.573
relative viability ([2]; first compound 6.325 µM): 0.515
relative viability ([2]; first compound 20 µM): 0.57
relative viability ([3]; first compound 0.2 µM): 0.529
relative viability ([3]; first compound 0.6325 µM): 0.67
relative viability ([3]; first compound 2 µM): 0.519
relative viability ([3]; first compound 6.325 µM): 0.256
relative viability ([3]; first compound 20 µM): 0.169
relative viability ([4]; first compound 0.2 µM): 0.668
relative viability ([4]; first compound 0.6325 µM): 0.608
relative viability ([4]; first compound 2 µM): 0.611
relative viability ([4]; first compound 6.325 µM): 0.647
relative viability ([4]; first compound 20 µM): 0.67
relative viability ([5]; first compound 0.2 µM): 0.368
relative viability ([5]; first compound 0.6325 µM): 0.318
relative viability ([5]; first compound 2 µM): 0.33
relative viability ([5]; first compound 6.325 µM): 0.362
relative viability ([5]; first compound 20 µM): 0.338
relative viability ([6]; first compound 0.2 µM): 0.308
relative viability ([6]; first compound 0.6325 µM): 0.326
relative viability ([6]; first compound 2 µM): 0.31
relative viability ([6]; first compound 6.325 µM): 0.326
relative viability ([6]; first compound 20 µM): 0.243
relative viability ([7]; first compound 0.2 µM): 0.475
relative viability ([7]; first compound 0.6325 µM): 0.554
relative viability ([7]; first compound 2 µM): 0.464
relative viability ([7]; first compound 6.325 µM): 0.454
relative viability ([7]; first compound 20 µM): 0.145
relative viability ([8]; first compound 0.2 µM): 0.835
relative viability ([8]; first compound 0.6325 µM): 0.646
relative viability ([8]; first compound 2 µM): 0.899
relative viability ([8]; first compound 6.325 µM): 0.177
relative viability ([8]; first compound 20 µM): 0.133
relative viability ([9]; first compound 0.2 µM): 0.443
relative viability ([9]; first compound 0.6325 µM): 0.511
relative viability ([9]; first compound 2 µM): 0.454
relative viability ([9]; first compound 6.325 µM): 0.307
relative viability ([9]; first compound 20 µM): 0.227
relative viability ([10]; first compound 0.2 µM): 0.518
relative viability ([10]; first compound 0.6325 µM): 0.51
relative viability ([10]; first compound 2 µM): 0.413
relative viability ([10]; first compound 6.325 µM): 0.19
relative viability ([10]; first compound 20 µM): 0.194
relative viability ([11]; first compound 0.2 µM): 0.544
relative viability ([11]; first compound 0.6325 µM): 0.538
relative viability ([11]; first compound 2 µM): 0.493
relative viability ([11]; first compound 6.325 µM): 0.446
relative viability ([11]; first compound 20 µM): 0.343
relative viability ([12]; first compound 0.2 µM): 0.463
relative viability ([12]; first compound 0.6325 µM): 0.471
relative viability ([12]; first compound 2 µM): 0.502
relative viability ([12]; first compound 6.325 µM): 0.289
relative viability ([12]; first compound 20 µM): 0.182
relative viability ([13]; first compound 0.2 µM): 0.228
relative viability ([13]; first compound 0.6325 µM): 0.269
relative viability ([13]; first compound 2 µM): 0.24
relative viability ([13]; first compound 6.325 µM): 0.226
relative viability ([13]; first compound 20 µM): 0.206
relative viability ([14]; first compound 0.2 µM): 0.286
relative viability ([14]; first compound 0.6325 µM): 0.327
relative viability ([14]; first compound 2 µM): 0.282
relative viability ([14]; first compound 6.325 µM): 0.259
relative viability ([14]; first compound 20 µM): 0.174
relative viability ([15]; first compound 0.2 µM): 0.603
relative viability ([15]; first compound 0.6325 µM): 0.988
relative viability ([15]; first compound 2 µM): 0.544
relative viability ([15]; first compound 6.325 µM): 0.406
relative viability ([15]; first compound 20 µM): 0.473
relative viability ([16]; first compound 0.2 µM): 0.763
relative viability ([16]; first compound 0.6325 µM): 0.709
relative viability ([16]; first compound 2 µM): 0.763
relative viability ([16]; first compound 6.325 µM): 0.433
relative viability ([16]; first compound 20 µM): 0.121
relative viability ([17]; first compound 0.2 µM): 0.603
relative viability ([17]; first compound 0.6325 µM): 0.594
relative viability ([17]; first compound 2 µM): 0.583
relative viability ([17]; first compound 6.325 µM): 0.535
relative viability ([17]; first compound 20 µM): 0.237
relative viability ([18]; first compound 0.2 µM): 0.404
relative viability ([18]; first compound 0.6325 µM): 0.42
relative viability ([18]; first compound 2 µM): 0.348
relative viability ([18]; first compound 6.325 µM): 0.33
relative viability ([18]; first compound 20 µM): 0.301
relative viability ([19]; first compound 0.2 µM): 0.476
relative viability ([19]; first compound 0.6325 µM): 0.466
relative viability ([19]; first compound 2 µM): 0.461
relative viability ([19]; first compound 6.325 µM): 0.482
relative viability ([19]; first compound 20 µM): 0.537
relative viability ([20]; first compound 0.2 µM): 0.384
relative viability ([20]; first compound 2 µM): 0.236
relative viability ([20]; first compound 6.325 µM): 0.127
relative viability ([20]; first compound 20 µM): 0.0225
relative viability ([21]; first compound 0.2 µM): 0.305
relative viability ([21]; first compound 0.6325 µM): 0.35
relative viability ([21]; first compound 2 µM): 0.312
relative viability ([21]; first compound 6.325 µM): 0.232
relative viability ([21]; first compound 20 µM): 0.149
relative viability ([22]; first compound 0.2 µM): 0.465
relative viability ([22]; first compound 0.6325 µM): 0.528
relative viability ([22]; first compound 2 µM): 0.477
relative viability ([22]; first compound 6.325 µM): 0.482
relative viability ([22]; first compound 20 µM): 0.389
relative viability ([23]; first compound 0.2 µM): 0.301
relative viability ([23]; first compound 0.6325 µM): 0.328
relative viability ([23]; first compound 2 µM): 0.258
relative viability ([23]; first compound 6.325 µM): 0.18
relative viability ([23]; first compound 20 µM): 0.138

Source: the supplement of paper PMC10307832
